Source: patent publication US11834458B2, “Anti-cancer nuclear hormone receptor-targeting compounds” (Nuvation Bio Inc., priority 2021, dated 2023)
Read-outs that look alike come from different tables or passages of the source.

Experiments:
LNCap cells = experiment: Cell viability assay, LNCap; format: cell-based; conditions: Homo sapiens, 144 h
Protocol: (§1) Cell viability assay: LNCap, 22Rv1, MCF7, MDAMB361, T47D, and IEC6 cells are seeded at a density of 500-2000 cells/well in 96 well plates, and a ‘T0’ (timepoint 0) was included along with the assay plate. The plates are then incubated at 37° C., 5% CO2 in a cell culture incubator overnight. On the next day, the ‘T0’ plate was assayed using CellTiterGlo (Promega, Inc) according to the manufacturer's instructions. The appropriate compounds are diluted in DMSO and added to the assay plate (final DMSO concentration of 0.1-0.2%) on the next day. The assay plates are incubated for 6 days at 37° C., 5% CO2. After the incubation period, the plates are assayed using CellTiterGlo (Promega, Inc) according to the manufacturer's instructions and luminescence was read on the EnVision plate reader. Inhibition of the tested compounds was determined by the following formula: Inhibition rate (%)=(1−(RLU compound−RLU day0)/(RLU control−RLU day0))*100%. GraphPadPrism was used to analyze the data and determine GI50/IC50 values.

IEC6 cells = experiment: Cell viability assay, IEC6; format: cell-based; conditions: Rattus norvegicus
Protocol: as §1

[1] = target: full-length androgen receptor (Homo sapiens (Human), UniProt P10275); experiment: AR antagonism assay; format: cell-based
Chain of full-length androgen receptor (P10275 whole entry): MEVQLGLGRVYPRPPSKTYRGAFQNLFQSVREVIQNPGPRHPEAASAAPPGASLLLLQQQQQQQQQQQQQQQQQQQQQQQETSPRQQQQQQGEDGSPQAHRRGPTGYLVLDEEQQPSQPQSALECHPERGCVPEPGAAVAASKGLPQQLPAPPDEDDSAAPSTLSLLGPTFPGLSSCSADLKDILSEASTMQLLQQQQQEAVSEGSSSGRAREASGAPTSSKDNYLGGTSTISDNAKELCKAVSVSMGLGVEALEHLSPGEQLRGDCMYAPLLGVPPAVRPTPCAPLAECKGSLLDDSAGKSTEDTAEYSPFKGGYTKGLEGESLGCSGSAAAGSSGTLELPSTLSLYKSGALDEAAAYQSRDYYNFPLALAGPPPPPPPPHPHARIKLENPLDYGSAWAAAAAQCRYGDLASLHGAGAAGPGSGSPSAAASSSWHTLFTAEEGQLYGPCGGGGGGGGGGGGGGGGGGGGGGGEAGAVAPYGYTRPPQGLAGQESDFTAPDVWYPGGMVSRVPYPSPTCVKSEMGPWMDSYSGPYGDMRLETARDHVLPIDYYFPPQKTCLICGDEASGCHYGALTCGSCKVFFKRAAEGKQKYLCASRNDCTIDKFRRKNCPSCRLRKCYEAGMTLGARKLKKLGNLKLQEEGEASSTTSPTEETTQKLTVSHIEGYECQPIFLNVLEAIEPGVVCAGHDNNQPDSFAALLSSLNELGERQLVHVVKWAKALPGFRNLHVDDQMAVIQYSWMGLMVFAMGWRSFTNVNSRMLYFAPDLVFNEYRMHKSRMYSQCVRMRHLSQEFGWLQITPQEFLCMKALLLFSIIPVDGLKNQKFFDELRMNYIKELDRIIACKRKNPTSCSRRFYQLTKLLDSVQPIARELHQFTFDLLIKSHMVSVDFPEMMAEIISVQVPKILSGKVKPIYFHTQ
Protocol: AR antagonism assay: To evaluate AR antagonist activity, test compound was added to the assay plate (top dose 10 μM, 3 fold serial dilution, 10 point dose response). HEK293 cells stably expressing the full-length androgen receptor were seeded at a density of 20,000 cells/well in the assay plate. The assay plate was then incubated at room temperature for 10 minutes and at 37° C., 5% CO2 for 20 minutes. Testosterone was added to the assay plate at 1 nM final concentration and the assay plate incubated at 37° C., 5% CO2 for 20 h. After the incubation period, Steady-glo was added to the assay plate and mixed at room temperature for 20 minutes on an orbital shaker, before reading out on the EnVision plate reader.

22Rv1 cells = experiment: Cell viability assay, 22Rv1; format: cell-based; conditions: Homo sapiens
Protocol: as §1

AR = AR (Homo sapiens (Human), UniProt P10275, T878A); experiment: AR binding assay
Chain of AR (P10275 whole entry T878A): as the sequence (P10275 whole entry) above, with T878A counted along it
Protocol: AR binding assay: To assess AR binding, test compound (top dose 10 μM, 4 fold serial dilution, 8 point dose response) and control (progesterone) were transferred to the assay plate. Cytosol from LnCaP cells was added to the plate, followed by addition of radiolabeled ^3H-R1881 at a final concentration of 1 nM. The plate was sealed, and the reaction was incubated at 300 rpm at 4° C. for 24 hrs. Radioligand absorption buffer (10 mM Tris-HCl, pH 7.4; 1.5 mM EDTA; 1 mM DTT; 0.25% charcoal; 0.0025% dextran) was then added to the plate, mixed, and incubated at 4° C. for 15 minutes. The plate was then centrifuged at 3000 rpm for 30 minutes at 4° C. The supernatant was transferred to the scint-tube and Tri-carb was used for scintillation counting. The data was analyzed using GraphPadPrism v5.0 and binding IC50 was determined as the concentration where 50% inhibition of radioligand binding was observed.

[2] = LNCap cells, 6 days, CellTiterGlo, read-out: LNCap (GI50)
[3] = 144 h, IEC-6 cells, 6 days, CellTiterGlo, read-out: IEC-6 (IC50)
[4] = 144 h, 22RV1 cells, 6 days, CellTiterGlo, read-out: 22RV1 (GI50)
[5] = cytosol from LnCaP cells, 3H-R1881 1 nM, 4° C. 24 hrs, read-out: AR binding

SMILES | GI50 (LNCap cells; LNCaP, read-out: LNCap (GI50, nM)) [nM] | IC50 (IEC6 cells; IEC-6, 144 h, read-out: IEC-6 (IC50, nM)) [nM] | IC50 ([1]; HEK293 cells stably expressing full-length androgen receptor, testosterone 1 nM, 20 h, read-out: AR antagonism) [nM] | GI50 (22Rv1 cells; 22Rv1, 144 h, read-out: 22RV1 (GI50, nM)) [nM] | IC50 (AR) [nM] | GI50 (LNCap cells; [2]) [nM] | IC50 (IEC6 cells; [3]) [nM] | IC50 [1] [nM] | GI50 (22Rv1 cells; [4]) [nM] | IC50 (AR; [5]) [nM]
CC[C@@]1(O)C(=O)OCc2c1cc1n(c2=O)Cc2cc3c(CN(C)C)c(OC(=O)N4CCN(CCCCCCO[C@@H]5CC[C@@H]6[C@H]7CC[C@@H]8CC(=O)CC[C@@]8(C)[C@@H]7CC[C@]65C)CC4)ccc3nc2-1 [Compound 8, (S)-10-((Dimethylamino)methyl)-4-ethyl-4-hydroxy-3,14-dioxo-3,4,12,14-tetrahydro-1H-pyrano[3′,4′:6,7]indolizino[1,2-b]quinolin-9-yl 4-(6-(((5R,8S,9R,10R,13R,14R,17R)-10,13-dimethyl-3-oxohexadecahydro-1H-cyclopenta[a]phenanthren-17-yl)oxy)hexyl)piperazine-1-carboxylate] | 10 to 500 | > 1000 | > 1000 | 10 to 500 | 10 to 500 |  |  |  |  | 
CC[C@@]1(O)C(=O)OCc2c1cc1n(c2=O)Cc2cc3c(CN4CCN(CC5CCN(c6ccc(C(=O)N[C@H]7CC[C@H](Oc8ccc(C#N)c(Cl)c8)CC7)nn6)CC5)CC4)c(O)ccc3nc2-1 [Compound 11, N-((1r,4r)-4-(3-Chloro-4-cyanophenoxy)cyclohexyl)-6-(4-((4-(((S)-4-ethyl-4,9-dihydroxy-3,14-dioxo-3,4,12,14-tetrahydro-1H-pyrano[3′,4′:6,7]indolizino[1,2-b]quinolin-10-yl)methyl)piperazin-1-yl)methyl)piperidin-1-yl)pyridazine-3-carboxamide] |  |  |  |  |  | 10 to 500 | 501 to 1000 | 10 to 500 | 10 to 500 | 10 to 500
CC[C@@]1(O)C(=O)OCc2c1cc1n(c2=O)Cc2cc3c(CN4CCN(C(=O)CCCCCOc5ccc(C(=O)N[C@H]6CC[C@H](Oc7ccc(C#N)c(Cl)c7)CC6)cc5)CC4)c(O)ccc3nc2-1 [Compound 12, N-((1r,4r)-4-(3-Chloro-4-cyanophenoxy)cyclohexyl)-4-((6-(4-(((S)-4-ethyl-4,9-dihydroxy-3,14-dioxo-3,4,12,14-tetrahydro-1H-pyrano[3′,4′:6,7]indolizino[1,2-b]quinolin-10-yl)methyl)piperazin-1-yl)-6-oxohexyl)oxy)benzamide] |  |  |  |  |  | 10 to 500 | > 1000 | 10 to 500 | 501 to 1000 | > 1000
CC[C@@]1(O)C(=O)OCc2c1cc1n(c2=O)Cc2cc3c(CN4CCN(C(=O)C5CCN(c6ccc(C(=O)N[C@H]7CC[C@H](Oc8ccc(C#N)c(Cl)c8)CC7)nn6)CC5)CC4)c(O)ccc3nc2-1 [Compound 14, N-((1r,4r)-4-(3-Chloro-4-cyanophenoxy)cyclohexyl)-6-(4-(4-(((S)-4-ethyl-4,9-dihydroxy-3,14-dioxo-3,4,12,14-tetrahydro-1H-pyrano[3′,4′:6,7]indolizino[1,2-b]quinolin-10-yl)methyl)piperazine-1-carbonyl)piperidin-1-yl)pyridazine-3-carboxamide] |  |  |  |  |  | 10 to 500 | > 1000 | 10 to 500 | 10 to 500 | 10 to 500
CC[C@@]1(O)C(=O)OCc2c1cc1n(c2=O)Cc2cc3c(CN4CCC(N(C)C(=O)CO[C@H]5CC[C@H]6[C@@H]7CC[C@H]8CC(=O)CC[C@]8(C)[C@H]7CC[C@]56C)CC4)c(O)ccc3nc2-1 [Compound 18, 2-(((5S,8R,9S,10S,13S,14S,17S)-10,13-Dimethyl-3-oxohexadecahydro-1H-cyclopenta[a]phenanthren-17-yl)oxy)-N-(1-(((S)-4-ethyl-4,9-dihydroxy-3,14-dioxo-3,4,12,14-tetrahydro-1H-pyrano[3′,4′:6,7]indolizino[1,2-b]quinolin-10-yl)methyl)piperidin-4-yl)-N-methylacetamide] |  |  |  |  |  | 10 to 500 | > 1000 | > 1000 | 10 to 500 | 10 to 500
